Target: Replicase polyprotein 1ab (Severe acute respiratory syndrome coronavirus, UniProt P0C6X7)
Assay: Inhibition Assay
Conditions: pH 7.5
Description: Inhibition assay against SARS-CoV 3CL protease, a fluorometric assay was utilized to determine the inhibition constants of the samples.

SMILES	IC50 [µM]	Ki [µM]
Nc1ccc(C(O)Cn2nnc3ccccc32)cc1 (stereo not given) [Benzotriazole ester, 16]	> 50	–
Nc1ccc(C(=O)Cn2nnc3ccccc32)cc1 [Benzotriazole ester, 15]	> 50	–
CNc1ccc(C(O)Cn2nnc3ccccc32)cc1 (stereo not given) [Benzotriazole ester, 19]	–	> 50
O=C(Cn1nnc2ccccc21)c1ccc([N+](=O)[O-])cc1 [Benzotriazole ester, 13]	> 50	–
CN(C)c1ccc(C(O)Cn2nnc3ccccc32)cc1 (stereo not given) [Benzotriazole ester, 20]	–	> 50

— BindingDB's records for doi:10.1016/j.chembiol.2005.12.008 (Academia Sinica, 2006)
